≈ marks a conversion by molar mass, not a printed value. Calls of active or inactive are those of the source. The rule behind the calls is not given here.
Assays:
Type in all cases: functional
[1] = tested on: Listeria; experiment: Antibacterial activity against Listeria sps. assessed as inhibition of bacterial growth by two-fold serial broth dilution method
[2] = tested on: Escherichia coli; experiment: Antibacterial activity against Escherichia coli assessed as inhibition of bacterial growth by two-fold serial broth dilution method
[3] = tested on: Staphylococcus aureus; experiment: Antibacterial activity against Staphylococcus aureus assessed as inhibition of bacterial growth by two-fold serial broth dilution method
[4] = tested on: Enterococcus faecalis; experiment: Antibacterial activity against Enterococcus faecalis assessed as inhibition of bacterial growth by two-fold serial broth dilution method
[5] = tested on: Salmonella enterica; experiment: Antibacterial activity against Salmonella enterica assessed as inhibition of bacterial growth by two-fold serial broth dilution method
[6] = tested on: Acinetobacter calcoaceticus; experiment: Antibacterial activity against Acinetobacter calcoaceticus assessed as inhibition of bacterial growth by two-fold serial broth dilution method
[7] = tested on: Bacillus subtilis; experiment: Antibacterial activity against Bacillus subtilis assessed as inhibition of bacterial growth by two-fold serial broth dilution method
[8] = tested on: Serratia marcescens; experiment: Antibacterial activity against Serratia marcescens assessed as inhibition of bacterial growth by two-fold serial broth dilution method

| MIC [1] | MIC [2] | MIC [3] | MIC [4] | MIC [5] | MIC [6] | MIC [7] | MIC [8] | SMILES |
| --- | --- | --- | --- | --- | --- | --- | --- | --- |
| 200 µg/mL (≈ 400 µM) | 100 µg/mL (≈ 200 µM) | 25 µg/mL (≈ 50 µM) | 6.25 µg/mL (≈ 12.5 µM) | 200 µg/mL (≈ 400 µM) | 100 µg/mL (≈ 200 µM) | 100 µg/mL (≈ 200 µM) | 200 µg/mL (≈ 400 µM) | O=C1c2cccc3cccc(c23)C(=O)N1Nc1nc(NCc2ccc(F)cc2)nc(N2CCOCC2)n1 |
| 0.19 µg/mL (≈ 0.387 µM) | 200 µg/mL (≈ 408 µM) | 100 µg/mL (≈ 204 µM) | 200 µg/mL (≈ 408 µM) | 200 µg/mL (≈ 408 µM) | 200 µg/mL (≈ 408 µM) | 50 µg/mL (≈ 102 µM) | 12.5 µg/mL (≈ 25.5 µM) | CCN(CC)CCNc1nc(NN2C(=O)c3cccc4cccc(c34)C2=O)nc(N2CCOCC2)n1 |
| 3.12 µg/mL (≈ 6.39 µM) | 100 µg/mL (≈ 205 µM) | 50 µg/mL (≈ 102 µM) | 200 µg/mL (≈ 409 µM) | 200 µg/mL (≈ 409 µM) | 200 µg/mL (≈ 409 µM) | 200 µg/mL (≈ 409 µM) | 100 µg/mL (≈ 205 µM) | CCN1CCN(c2nc(NN3C(=O)c4cccc5cccc(c45)C3=O)nc(N3CCOCC3)n2)CC1 |
| 200 µg/mL (≈ 466 µM) | 100 µg/mL (≈ 233 µM) | 50 µg/mL (≈ 116 µM) | 0.048 µg/mL (≈ 0.112 µM) | 100 µg/mL (≈ 233 µM) | 200 µg/mL (≈ 466 µM) | 25 µg/mL (≈ 58.2 µM) | 200 µg/mL (≈ 466 µM) | C#CCNc1nc(NN2C(=O)c3cccc4cccc(c34)C2=O)nc(N2CCOCC2)n1 |
| 50 µg/mL (≈ 109 µM) | 400 µg/mL (≈ 870 µM) | 1.56 µg/mL (≈ 3.39 µM) | inactive | 200 µg/mL (≈ 435 µM) | 200 µg/mL (≈ 435 µM) | 6.25 µg/mL (≈ 13.6 µM) | 200 µg/mL (≈ 435 µM) | O=C1c2cccc3cccc(c23)C(=O)N1Nc1nc(N2CCCCC2)nc(N2CCOCC2)n1 |
| 50 µg/mL (≈ 108 µM) | 200 µg/mL (≈ 432 µM) | 100 µg/mL (≈ 216 µM) | 200 µg/mL (≈ 432 µM) | 100 µg/mL (≈ 216 µM) | 100 µg/mL (≈ 216 µM) | 200 µg/mL (≈ 432 µM) | 25 µg/mL (≈ 54.1 µM) | CN(C)CCNc1nc(NN2C(=O)c3cccc4cccc(c34)C2=O)nc(N2CCOCC2)n1 |
| 100 µg/mL (≈ 232 µM) | 200 µg/mL (≈ 464 µM) | 25 µg/mL (≈ 57.9 µM) | 100 µg/mL (≈ 232 µM) | 200 µg/mL (≈ 464 µM) | 100 µg/mL (≈ 232 µM) | 50 µg/mL (≈ 116 µM) | 200 µg/mL (≈ 464 µM) | C=CCNc1nc(NN2C(=O)c3cccc4cccc(c34)C2=O)nc(N2CCOCC2)n1 |
| 25 µg/mL (≈ 50.4 µM) | 200 µg/mL (≈ 404 µM) | 12.5 µg/mL (≈ 25.2 µM) | 50 µg/mL (≈ 101 µM) | 200 µg/mL (≈ 404 µM) | 100 µg/mL (≈ 202 µM) | 12.5 µg/mL (≈ 25.2 µM) | 100 µg/mL (≈ 202 µM) | Cc1ccc(CNc2nc(NN3C(=O)c4cccc5cccc(c45)C3=O)nc(N3CCOCC3)n2)cc1 |
| inactive | 400 µg/mL (≈ 824 µM) | 50 µg/mL (≈ 103 µM) | 200 µg/mL (≈ 412 µM) | 200 µg/mL (≈ 412 µM) | 200 µg/mL (≈ 412 µM) | 200 µg/mL (≈ 412 µM) | 200 µg/mL (≈ 412 µM) | O=C1c2cccc3cccc(c23)C(=O)N1Nc1nc(Nc2ccc(F)cc2)nc(N2CCOCC2)n1 |
| 0.048 µg/mL (≈ 0.0951 µM) | 100 µg/mL (≈ 198 µM) | 3.12 µg/mL (≈ 6.18 µM) | 200 µg/mL (≈ 396 µM) | 200 µg/mL (≈ 396 µM) | 200 µg/mL (≈ 396 µM) | 200 µg/mL (≈ 396 µM) | 50 µg/mL (≈ 99.1 µM) | O=C1c2cccc3cccc(c23)C(=O)N1Nc1nc(NCCN2CCOCC2)nc(N2CCOCC2)n1 |

From ChEMBL document CHEMBL5620398, “Membrane-active substituted triazines as antibacterial agents against Staphylococcus aureus with potential for low drug resistance and broad activity” (Eur J Med Chem, 2023)
